Marks after values point to notes of the source that are not given here.
Assays:
[1] = tested on: normal pooled plasma and donor plasma; assay: On-chip APTT assay with argatroban titration, plug-based microfluidic device, plasma, 37° C.; type: biochemical, human
[2] = tested on: donor's whole blood; assay: On-chip APTT assay with argatroban titration, plug-based microfluidic device, whole blood, 23° C.; type: biochemical, human; details: APTT with argatroban / baseline APTT
[3] = molecular target: T1, human α-thrombin (Homo sapiens, UniProt P00734); details: 37° C., 50 mM Tris-HCl, pH 8.0, 0.15 M NaCl, 1 mM CaCl2, 1 mg/mL BSA; cited from earlier work
T1 construct: A fluorogenic substrate for human α-thrombin

[4] = tested on: activated protein C (aPC); assay: Activated protein C (aPC) production from Egg PC lipid coated surfaces with reconstituted thrombomodulin; type: biochemical
Text: It has been proposed that clot propagation is regulated by thrombomodulin (TM), an inhibitor of clotting located at on the walls of vessels near sites of vascular damage. It has been shown that clot propagation is reduced when TM is homogenously mixed into blood plasma. To mimic the localization of TM on vessel walls, TM was incorporated at the channel walls and tested if this TM was sufficient to stop clot propagation. The inventors incorporated TM into the inert phospholipid surface by forming inert lipid vesicles with reconstituted TM (lipid:TM) and by using the procedure described above to coat the channel walls.
Control experiments verified TM activity on the channel walls was on the same order of magnitude as previously measured for a monolayer of endothelial cells. Measured TM activities are shown in Table 2, which illustrates the quantification of activated protein C (aPC) production from Egg PC lipid coated surfaces with reconstituted thrombomodulin (TM). Corresponding velocities of clot propagation are shown.

[5] = tested on: human blood plasma; assay: Velocity of clot propagation in a microfluidic channel in the absence of flow; type: biochemical
Text: To test the prediction that clots propagate as a reactive front with a constant velocity, the inventors used a microfluidic system to regulate and observe clotting in human blood plasma. This system was fabricated in poly(dimethylsiloxane) (PDMS).
FIG. 22 illustrates measurement of the propagation of a blood clot through a microfluidic channel in the absence of flow. Clots propagate with a similar velocity, Fv, in the absence and presence of a membrane-bound inhibitor of clotting, thrombomodulin (TM), on the channel wall. FIG. 22a is a schematic drawing of the procedure for initiating and monitoring clot propagation in a microfluidic device. […] FIG. 22b is a fluorescence microphotograph of a microfluidic device showing that lipids with reconstituted TF (lipid-TF) can be localized to a specific section of a channel in a background of inert lipids. FIG. 22c is a time-lapse fluorescence microphotographs showing position of the clot at 0, 40, and 80 min after plasma was introduced into the channel.
Clot initiation and propagation were spatially separated by patterning the walls of the same channel with different phospholipids (FIG. 22a). […] Clotting was monitored using bright-field microscopy to detect fibrin formation and fluorescence microscopy to detect thrombin-induced cleavage of a peptide-modified coumarin dye. […]

[6] = cited from earlier work
[7] = tested on: normal pooled plasma (NPP); assay: Initiation of clotting on patches of TF-reconstituted bilayers (timescale of reaction, threshold patch size); type: biochemical, human
Method: Reconstituting tissue factor (TF) to obtain clot-promoting vesicles. TF was reconstituted into mixed vesicles of DLPC/PS/Texas Reds DHPE (79.5/20/0.5 mole percents) at a concentration of 1.25 mg/mL in 1×HEPES-buffered saline/Ca^2+ buffer. For experiments in FIGS. 17, 18, and 19 the TF concentration in the vesicle solution was 0.40 nM (TF:lipid ratio of 2.5×10^−7). Assuming that all the TF was incorporated into the vesicles, the calculated surface concentration would be 0.08 fmol/cm^2. For experiments in Table 1, a final concentration of 0.16 nM of TF (TF:lipid ratio of 1×10^−7) was used. After addition of TF to the vesicle solution, the solution was incubated at 37° C. for 30 min and then stored at 12° C. The vesicles were used within 18 hrs.
Generating patches by backfilling clot-promoting lipids into the photo-removed regions of bilayer. To generate the clot-promoting patches, the patterned bilayers were backfilled with 30 μL of the TF-reconstituted vesicle solution (1.25 mg/mL vesicles in PBS buffer) and allowed to incubate for 4 min at room temperature. Phospholipid bilayers containing active TF have been prepared previously (Contino et al., 1994, Biophys. J. 67: 1113-1116 (1994)). Excess vesicles were removed by vigorous rinsing with a solution of NaCl (150 mM). Patterned bilayers were used immediately in clotting experiments.
Recalcifying the blood plasma samples and adding the thrombi-sensitive dye. All blood plasma samples were recalcified by adding a solution of CaCl2 containing the thrombin-sensitive fluorescent dye, Boc-Asp(OBzl)-Pro-Arg-MCA, (CaCl2, 40 mM; NaCl, 90 mM; and Boc-Asp(OBzl)-Pro-Arg-MCA, 0.4 mM). At the start of each experiment, the plasma and the solution containing CaCl2 were mixed 3:1 by volume. Clotting was detected by the appearance of fibrin using bright field microscopy, and by the appearance of fluorescence signal generated when 4-Methyl-Coumaryl-7-Amine (MCA) was cleaved from Boc-Asp(OBzl)-Pro-Arg-MCA by thrombin.
Inhibiting the factor XII pathway with corn trypsin inhibitor. For experiments measuring clot times for the TF pathway (all experiments using phospholipid bilayers and reconstituted TF), the factor XII (contact) pathway was inhibited with corn trypsin inhibitor (CTI). […]
The threshold patch size of donor platelet rich plasma and normal pooled plasma was measured at 24° C. and 37° C. Clot times were measured on patches presenting clotting stimuli (TF-reconstituted bilayers) in arrays containing patches of different sizes (Table 1). In a single experiment, the clot time on seven different patch sizes was measured. […] Clot time vs. patch size for platelet rich plasma (PRP) from donors was measured.

## CC1CNc2c(cccc2S(=O)(=O)N[C@@H](CCCNC(=N)N)C(=O)N2CC[C@@H](C)C[C@@H]2C(=O)O)C1 (some centres unmarked) [argatroban]
[1]; argatroban 0.5 μg/mL
  APTT ratio: about 2.1
[1]; argatroban 1.0 μg/mL
  APTT ratio: 2.7
[2]; argatroban 0.5 μg/mL
  APTT ratio: 2.3
[2]; argatroban 1.0 μg/mL
  APTT ratio: 2.8

## t-butyloxycarbonyl-β-benzyl-L-aspartyl-L-prolyl-Larginine-4-methyl-coumaryl-7-amide
[3]
  Km: 11 µM
  kcat: 160 s⁻¹

## thrombomodulin [TM]
[4]; Glass, 37 ° C., TM:Egg PC ratio 1:7560
  aPC production: 10 pmol min^−1 m^−2
[4]; Glass, 37 ° C., TM:Egg PC ratio 1:75600
  aPC production: 0.3 pmol min^−1 m^−2
[4]; PDMS, 25 ° C., TM:Egg PC ratio 1:7560
  aPC production: 5* pmol min^−1 m^−2
[4]; PDMS, 25 ° C., TM:Egg PC ratio 1:75600
  aPC production: 10 pmol min^−1 m^−2
[5]; Glass, 37 ° C., TM:Egg PC ratio 1:7560, 41 without TM
  Front Velocity: 50 μm min^−1
[5]; PDMS, 25 ° C., TM:Egg PC ratio 1:75600 (lipid:TM=7.6×10^4), 20 without TM
  Front Velocity (Fv): 24 μm min^−1

## O=Nc1ccccc1C(=O)O [2-nitrosobenzoic acid]
[6]
  pKa: < 4

B1: tissue factor (protein, UniProt P13726 33-295, looked up)
Tissue factor: SGTTNTVAAYNLTWKSTNFKTILEWEPKPVNQVYTVQISTKSGDWKSKCFYTTDTECDLTDEIVKDVKQTYLARVFSYPAGNVESTGSAGEPLYENSPEFTPYLETNLGQPTIQSFEQVGTKVNVTVEDERTLVRRNNTFLSLRDVFGKDLIYTLYYWKSSSSGKKTAKTNTNEFLIDVDKGENYCFSVQAVIPSRTVNRKSTDSPVECMGQEKGEFREIFYIIGAVVFVVIILVIILAISLHKCRKAGVGQSWKENSPLNVS
modifications: in phospholipid bilayers
notes: human recombinant tissue factor reconstituted in phospholipid bilayers, clotting stimulus
[7]; [TF]=0.16 nM in vesicles
  threshold patch size, ptr: 160±32 μm
  timescale of reaction, tR: 206 s
[7]; [TF]=0.40 nM in vesicles
  threshold patch size, ptr: 75±25 μm
  timescale of reaction, tR: 30 s
